In brackets after ≈: the same amount, converted by molar mass. Activity calls are given as the source filed them. No cut-off for these calls is given here.
Tests used:
[1] = test system: Mycobacteroides abscessus; assay: Antimycobacterial activity against Mycobacterium abscessus ATCC 19977 by CLSI method; assay type: functional
Mycobacterium avium = assay: Antimycobacterial activity against Mycobacterium avium 101 by CLSI method; assay type: functional
[2] = test system: Mycolicibacterium fortuitum; assay: Antimycobacterial activity against Mycobacterium fortuitum 41 by CLSI method; assay type: functional
[3] = test system: Mycobacteroides abscessus; assay: Antimycobacterial activity against Mycobacterium abscessus 21 by CLSI method; assay type: functional
[4] = test system: Mycobacteroides abscessus; assay: Antimycobacterial activity against Mycobacterium abscessus 1 by CLSI method; assay type: functional
Mycobacteroides chelonae = assay: Antimycobacterial activity against Mycobacterium chelonae 93 by CLSI method; assay type: functional
[5] = test system: Mycobacteroides abscessus; assay: Antimycobacterial activity against Mycobacterium massiliense 119 by CLSI method; assay type: functional, Mycobacterium abscessus subsp. massiliense
[6] = test system: Mycobacterium tuberculosis; assay: Antimycobacterial activity against Mycobacterium tuberculosis H37Rv MC2 6206 by CLSI method; assay type: functional
[7] = test system: Mycolicibacterium peregrinum; assay: Antimycobacterial activity against Mycobacterium peregrinum ATCC 700686 by CLSI method; assay type: functional
[8] = test system: Mycobacteroides abscessus; assay: Antimycobacterial activity against Mycobacterium abscessus 103 by CLSI method; assay type: functional
[9] = test system: Mycobacterium intracellulare; assay: Antimycobacterial activity against Mycobacterium intracellulare 1956 by CLSI method; assay type: functional
[10] = test system: Mycobacteroides abscessus; assay: Antimycobacterial activity against Mycobacterium abscessus 79 by CLSI method; assay type: functional
CYP2B6 = molecular target: T1, CYP2B6 (Homo sapiens, UniProt P20813); assay: Inhibition of CYP2B6 (unknown origin) at 10 uM; assay type: ADME
T1 sequence (P20813 whole entry): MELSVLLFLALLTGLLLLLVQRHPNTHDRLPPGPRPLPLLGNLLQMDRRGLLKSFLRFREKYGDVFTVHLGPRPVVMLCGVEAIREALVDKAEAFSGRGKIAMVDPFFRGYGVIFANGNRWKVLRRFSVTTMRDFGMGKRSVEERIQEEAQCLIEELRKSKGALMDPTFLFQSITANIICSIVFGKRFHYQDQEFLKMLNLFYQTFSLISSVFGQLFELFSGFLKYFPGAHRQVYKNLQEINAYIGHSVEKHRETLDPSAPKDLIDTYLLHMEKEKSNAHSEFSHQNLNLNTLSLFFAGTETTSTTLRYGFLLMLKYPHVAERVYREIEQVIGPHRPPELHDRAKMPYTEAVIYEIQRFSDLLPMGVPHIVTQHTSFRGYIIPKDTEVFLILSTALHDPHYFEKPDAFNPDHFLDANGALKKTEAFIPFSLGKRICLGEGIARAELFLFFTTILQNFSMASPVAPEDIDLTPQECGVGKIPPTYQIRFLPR

CYP3A4 = CYP3A4 (Homo sapiens, UniProt P08684); assay: Inhibition of CYP3A4 (unknown origin) at 10 uM; assay type: ADME
Sequence of CYP3A4 (P08684 whole entry): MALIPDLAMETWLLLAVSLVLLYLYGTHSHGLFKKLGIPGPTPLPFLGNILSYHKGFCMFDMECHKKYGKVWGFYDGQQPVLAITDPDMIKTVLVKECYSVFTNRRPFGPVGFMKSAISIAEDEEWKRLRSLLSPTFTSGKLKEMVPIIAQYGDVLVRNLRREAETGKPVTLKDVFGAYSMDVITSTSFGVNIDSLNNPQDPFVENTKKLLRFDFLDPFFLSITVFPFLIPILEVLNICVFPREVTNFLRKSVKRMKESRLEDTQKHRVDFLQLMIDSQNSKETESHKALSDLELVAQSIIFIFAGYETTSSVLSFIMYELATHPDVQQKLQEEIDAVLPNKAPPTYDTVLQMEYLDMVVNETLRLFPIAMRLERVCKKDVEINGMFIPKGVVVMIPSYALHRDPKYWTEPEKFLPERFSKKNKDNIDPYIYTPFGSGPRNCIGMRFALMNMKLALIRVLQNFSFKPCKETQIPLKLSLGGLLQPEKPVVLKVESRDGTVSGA

[11] = test system: Mycobacteroides abscessus; assay: Antimycobacterial activity against Mycobacterium abscessus assessed as reduction in viable colony forming unit after 5 days by time-kill assay relative to control; assay type: functional
[12] = test system: Mycobacteroides abscessus; assay: Bacteriostatic activity against Mycobacterium abscessus assessed as reduction in viable colony forming unit after 3 days by time-kill assay; assay type: functional, organism-based
Cytochrome P450 2C8 = molecular target: T2, Cytochrome P450 2C8 (Homo sapiens, UniProt P10632); assay: Inhibition of CYP2C8 (unknown origin); assay type: ADME
T2 sequence (P10632 whole entry): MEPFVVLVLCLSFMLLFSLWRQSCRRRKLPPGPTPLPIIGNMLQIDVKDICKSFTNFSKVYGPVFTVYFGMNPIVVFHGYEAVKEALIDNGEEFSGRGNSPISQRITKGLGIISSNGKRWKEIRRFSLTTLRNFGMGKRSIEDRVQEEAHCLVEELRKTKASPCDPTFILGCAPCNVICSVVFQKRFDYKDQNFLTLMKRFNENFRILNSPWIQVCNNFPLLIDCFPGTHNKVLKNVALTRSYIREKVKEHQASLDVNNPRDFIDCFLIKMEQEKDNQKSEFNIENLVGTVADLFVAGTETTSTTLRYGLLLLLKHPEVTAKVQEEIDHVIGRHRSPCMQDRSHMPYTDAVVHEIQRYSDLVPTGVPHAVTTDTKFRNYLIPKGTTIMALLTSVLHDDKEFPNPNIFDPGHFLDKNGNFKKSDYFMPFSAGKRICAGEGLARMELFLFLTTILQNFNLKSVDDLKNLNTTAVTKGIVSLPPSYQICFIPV

[13] = Oral bioavailability in mouse at 100 mg/kg; assay type: ADME, organism-based; settings: in vivo
Cytochrome P450 2C19 = Cytochrome P450 2C19 (Homo sapiens, UniProt P33261); assay: Inhibition of CYP2C19 (unknown origin); assay type: ADME
Sequence of Cytochrome P450 2C19 (P33261 whole entry): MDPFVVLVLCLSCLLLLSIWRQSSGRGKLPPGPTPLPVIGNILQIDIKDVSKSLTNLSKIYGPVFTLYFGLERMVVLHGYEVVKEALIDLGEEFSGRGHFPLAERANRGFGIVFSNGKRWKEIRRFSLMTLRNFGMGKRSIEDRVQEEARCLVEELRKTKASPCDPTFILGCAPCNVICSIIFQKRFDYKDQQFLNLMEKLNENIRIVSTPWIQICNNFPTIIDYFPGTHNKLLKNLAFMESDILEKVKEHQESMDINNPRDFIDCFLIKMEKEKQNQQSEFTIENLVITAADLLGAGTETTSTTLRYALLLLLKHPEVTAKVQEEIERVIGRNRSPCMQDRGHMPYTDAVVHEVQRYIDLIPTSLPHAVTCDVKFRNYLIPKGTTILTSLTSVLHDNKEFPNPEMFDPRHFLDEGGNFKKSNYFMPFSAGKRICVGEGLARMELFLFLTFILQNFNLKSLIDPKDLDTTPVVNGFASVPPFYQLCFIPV

Cytochrome P450 3A4 [14] = molecular target: T3, Cytochrome P450 3A4 (Homo sapiens, UniProt P08684); assay: Inhibition of CYP3A4 (unknown origin) using midazolam as substrate; assay type: ADME
T3 sequence (P08684 whole entry): as the sequence (P08684 whole entry) above

Cytochrome P450 2B6 = molecular target: T4, Cytochrome P450 2B6 (Homo sapiens, UniProt P20813); assay: Inhibition of CYP2B6 (unknown origin); assay type: ADME
T4 sequence (P20813 whole entry): T1 sequence (P20813 whole entry)

[15] = Solubility of the compound; assay type: physicochemical
RBCs = assay: Hemolytic activity in RBC (unknown origin) at 128 ug/ml; assay type: ADME, cell-based; settings: erythrocyte
[16] = Protein binding in human serum; assay type: ADME, cell-free; settings: read-out: PB
[17] = Clearance in mouse plasma at 10 mg/kg, iv; assay type: ADME, organism-based
Cytochrome P450 3A4 [18] = molecular target: T3, Cytochrome P450 3A4; assay: Inhibition of CYP3A4 (unknown origin) using testosterone as substrate; assay type: ADME
Cytochrome P450 2D6 = Cytochrome P450 2D6 (Homo sapiens, UniProt P10635); assay: Inhibition of CYP2D6 (unknown origin); assay type: ADME
Sequence of Cytochrome P450 2D6 (P10635 whole entry): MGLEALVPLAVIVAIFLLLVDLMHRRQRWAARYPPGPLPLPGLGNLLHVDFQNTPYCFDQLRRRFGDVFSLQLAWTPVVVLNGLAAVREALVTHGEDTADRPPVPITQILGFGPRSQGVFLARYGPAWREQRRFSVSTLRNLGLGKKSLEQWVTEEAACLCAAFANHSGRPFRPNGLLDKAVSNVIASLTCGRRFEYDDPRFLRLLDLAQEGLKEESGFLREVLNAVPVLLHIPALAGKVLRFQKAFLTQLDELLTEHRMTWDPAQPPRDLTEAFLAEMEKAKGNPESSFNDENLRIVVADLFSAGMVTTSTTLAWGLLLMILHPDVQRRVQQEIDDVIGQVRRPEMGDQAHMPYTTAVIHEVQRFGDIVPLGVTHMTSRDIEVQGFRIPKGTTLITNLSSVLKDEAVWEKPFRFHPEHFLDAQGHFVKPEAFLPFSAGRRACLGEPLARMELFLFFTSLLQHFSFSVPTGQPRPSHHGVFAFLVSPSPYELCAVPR

Cytochrome P450 2C9 = Cytochrome P450 2C9 (Homo sapiens, UniProt P11712); assay: Inhibition of CYP2C9 (unknown origin); assay type: ADME
Sequence of Cytochrome P450 2C9 (P11712 whole entry): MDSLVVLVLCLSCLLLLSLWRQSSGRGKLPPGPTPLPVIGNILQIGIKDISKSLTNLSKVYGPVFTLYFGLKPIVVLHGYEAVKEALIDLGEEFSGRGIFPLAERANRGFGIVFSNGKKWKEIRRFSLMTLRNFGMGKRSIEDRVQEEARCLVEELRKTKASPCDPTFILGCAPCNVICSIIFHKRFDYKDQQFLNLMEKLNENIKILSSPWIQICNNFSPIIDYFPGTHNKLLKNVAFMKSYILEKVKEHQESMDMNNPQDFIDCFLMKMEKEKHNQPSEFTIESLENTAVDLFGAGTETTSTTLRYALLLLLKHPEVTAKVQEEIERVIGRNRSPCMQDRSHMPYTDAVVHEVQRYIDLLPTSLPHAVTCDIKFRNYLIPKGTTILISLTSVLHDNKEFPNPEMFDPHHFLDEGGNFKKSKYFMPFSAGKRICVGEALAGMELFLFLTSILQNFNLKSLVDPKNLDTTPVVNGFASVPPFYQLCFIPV

SMILES	MIC [1] [µg/mL]	MIC (Mycobacterium avium) [µg/mL]	MIC [2] [µg/mL]	MIC [3] [µg/mL]	MIC [4] [µg/mL]	MIC (Mycobacteroides chelonae) [µg/mL]	MIC [5] [µg/mL]	MIC [6] [µg/mL]	MIC [7] [µg/mL]	MIC [8] [µg/mL]	MIC [9] [µg/mL]	MIC [10] [µg/mL]	other results
O=C(Nc1nc2ccc(OC(F)(F)F)cc2s1)C1CCCCC1	32 (≈ 92.9 µM)	> 64	> 64	16 (≈ 46.5 µM)	> 64	> 64	> 64	64 (≈ 186 µM)	> 64	> 64	> 64	> 64	
CC1CC(C(=O)Nc2nc3ccc(N(C)C)cc3s2)CC(C)(C)C1 (stereo unspecified)	32 (≈ 92.6 µM)	> 64	8 (≈ 23.2 µM)	16 (≈ 46.3 µM)	> 64	2 (≈ 5.79 µM)	4 (≈ 11.6 µM)		2 (≈ 5.79 µM)	64 (≈ 185 µM)	> 64	8 (≈ 23.2 µM)	
CC12CCCC(C(=O)Nc3nc4cc(Cl)cc(Cl)c4s3)(CCC1)C2		2 (≈ 5.22 µM)	0.06 (≈ 0.157 µM)	0.03 (≈ 0.0783 µM)	0.06 (≈ 0.157 µM)	0.03 (≈ 0.0783 µM)	0.03 (≈ 0.0783 µM)	≤ 0.12	0.03 (≈ 0.0783 µM)	0.03 (≈ 0.0783 µM)	2 (≈ 5.22 µM)	0.03 (≈ 0.0783 µM)	inhibition at 10 µM (CYP2B6): > 50%; inhibition at 10 µM (CYP3A4): > 50%
O=C(Nc1nc2ccc(C(F)(F)F)cc2s1)C1CCC2(CC1)CC2	32 (≈ 90.3 µM)	64 (≈ 181 µM)	> 64	16 (≈ 45.1 µM)	8 (≈ 22.6 µM)	4 (≈ 11.3 µM)	8 (≈ 22.6 µM)	32 (≈ 90.3 µM)	> 64		> 64	16 (≈ 45.1 µM)	
CC12CC3CC(C)(C1)CC(C(=O)Nc1nc4ccccc4s1)(C3)C2	1 (≈ 2.94 µM)	2 (≈ 5.87 µM)						4 (≈ 11.7 µM)			2 (≈ 5.87 µM)		
CC12CC3CC(C)(C1)CC(C(=O)Nc1nc4ccc(OC(F)(F)F)cc4s1)(C3)C2	0.25 (≈ 0.589 µM)	2 (≈ 4.71 µM)	0.25 (≈ 0.589 µM)	0.25 (≈ 0.589 µM)	0.25 (≈ 0.589 µM)	0.25 (≈ 0.589 µM)	0.25 (≈ 0.589 µM)	1 (≈ 2.36 µM)	0.12 (≈ 0.283 µM)	0.25 (≈ 0.589 µM)	1 (≈ 2.36 µM)	0.25 (≈ 0.589 µM)	Activity [11]: 2 deltalog10CFU; Activity [12]: Active
CC1CC(C(=O)Nc2nc3ccc(Br)cc3s2)CC(C)(C)C1 (stereo unspecified)		> 64	0.5 (≈ 1.31 µM)	0.5 (≈ 1.31 µM)	1 (≈ 2.62 µM)	0.5 (≈ 1.31 µM)	0.5 (≈ 1.31 µM)	2 (≈ 5.24 µM)	0.12 (≈ 0.315 µM)	0.25 (≈ 0.656 µM)	> 64	0.5 (≈ 1.31 µM)	IC50 (Cytochrome P450 2C8): > 20 µM; bioavailability [13]: 75%; IC50 (Cytochrome P450 2C19): 12.7 µM; IC50 (Cytochrome P450 3A4 [14]): > 20 µM; IC50 (Cytochrome P450 2B6): 12.8 µM; solubility [15]: Insoluble; Activity (RBCs): Non-Toxic; fraction unbound [16]: < 0.01; clearance [17]: 25 mL/min/kg; IC50 (Cytochrome P450 3A4 [18]): > 20 µM; IC50 (Cytochrome P450 2D6): 1.6 µM; IC50 (Cytochrome P450 2C9): > 20 µM
CC12CCCC(C(=O)Nc3nc4ccc(OC(F)(F)F)cc4s3)(CCC1)C2		2 (≈ 5.02 µM)	0.5 (≈ 1.25 µM)	0.06 (≈ 0.151 µM)	0.06 (≈ 0.151 µM)	0.06 (≈ 0.151 µM)	0.06 (≈ 0.151 µM)	1 (≈ 2.51 µM)	0.06 (≈ 0.151 µM)	0.12 (≈ 0.301 µM)	2 (≈ 5.02 µM)	0.06 (≈ 0.151 µM)	inhibition at 10 µM (CYP2B6): > 50%; inhibition at 10 µM (CYP3A4): > 50%

Reference: ChEMBL document CHEMBL4265897, “Discovery of benzothiazole amides as potent antimycobacterial agents” (Bioorg Med Chem Lett, 2018)
